In general, MIC refers to the lowest concentration that inhibits growth of the organism.

The results in this text go back to patent US20230013669A1, “Antibacterial Treatment Using a Cannabinoid and an Active Agent” (priority 2019, published 2023).

“And” between values parts separate entries of the source, which are not always exact repeats. Equal values may be shown once. Read-outs that look alike come from different tables or passages of the source.

Holding throughout (format): cell-based
Experiment [1] relates to Escherichia coli ATCC 25922 (GN_001). The experiment is described as follows: MIC micro-broth dilution assay (Example 1 method). As to conditions: for MIC: Escherichia coli.
Description: (§5) The plates were covered and incubated at 37° C. for 18-20 h.
(§6) Optical density was read at 600 nm (OD600) using Tecan M1000 Pro Spectrophotometer. […] Analysis was performed using Microsoft Excel.
In experiment [2] the test system is Acinetobacter baumannii ATCC 19606 (GN_034). The experiment is described as follows: MIC micro-broth dilution assay (Example 1 method). As to conditions: for MIC: Acinetobacter baumannii. On the technique in general: Broth dilution looks for growth in wells or tubes with falling amounts of substance.
Description: as §5, §6
Experiment [3] has as its system Pseudomonas aeruginosa ATCC 27853 (GN_042). The experiment is described as follows: MIC micro-broth dilution assay (Example 1 method).
Description: as §5, §6
Experiment [4] relates to Klebsiella pneumoniae ATCC 700603. The experiment is described as follows: MIC micro-broth dilution assay (Example 1 method). On the procedure: Methods were as for Example 1. Cannabidiol was tested in combination with cefotetan.
Methods were as for Example 1. Cannabidiol was tested in combination with aztreonam.
Methods were as for Example 1. Cannabidiol was tested in combination with cefepime.
Methods were as for Example 1. Cannabidiol was tested in combination with octapeptin C4.
Methods were as for Example 1. Cannabidiol was tested in combination with Spero SPR206. The experiments were carried out three times.

In experiment [5] the test system is Acinetobacter baumannii 03.021.1 (GN_038), Colistin resistant. The experiment is described as follows: MIC micro-broth dilution assay (Example 1 method). The following applies: for Minimum Inhibitory Concentration (MIC): replicates, listed as MCC_000636. On the procedure:
(§1) Analysis was performed using Microsoft Excel.

For experiment [6], the system named is Acinetobacter baumannii 03.021.1 (GN_039), Colistin resistant. The experiment is described as follows: MIC micro-broth dilution assay (Example 1 method). The following applies: for Minimum Inhibitory Concentration (MIC): replicates, listed as MCC_000636. The procedure: as §1
Experiment [7] deals with Enterobacter cloacae CI Patercon BoxNo: 79 (GN_016), MDR. The experiment is described as follows: MIC micro-broth dilution assay (Example 1 method). The following applies: for Minimum Inhibitory Concentration (MIC): replicates, listed as MCC_000636. On the procedure: as §1
Experiment [8] deals with Escherichia coli HS71 (GN_110), CTX-M. The experiment is described as follows: MIC micro-broth dilution assay (Example 1 method). The following applies: Example 9 Table 35, compound alone, replicates. On the procedure: as §1
Experiment [9] has as its system Klebsiella pneumoniae BAA-2146 (GN_045), NDM-1. The experiment is described as follows: MIC micro-broth dilution assay (Example 1 method). As to conditions: Example 9 Table 35, compound alone, replicates, listed as MCC_000636. The procedure: as §1
Experiment [10] has as its system Pseudomonas aeruginosa FADDI-PA067 (GN_177), Polymyxin resistant. The experiment is described as follows: MIC micro-broth dilution assay (Example 1 method). The following applies: GN_177. On the procedure: as §1
Experiment [11] has as its system Acinetobacter baumannii AL1851, IpxA mutant; Lipid A deficient (GN_237). The experiment is described as follows: MIC broth microdilution, 96-well, visual reading (Example 11). The procedure: (§2) The experiment was performed to investigate the antimicrobial activity of cannabidiol (CBD) against an LPS deficient strain (GN_237 Acinetobacter baumannii, IpxA mutant; Lipid A deficient; obtained by colistin selection from base strain ATCC 19606) and its parent strain (GN_034, Acinetobacter baumannii, ATCC 19606).
(§3) All plates had flat bottom wells and were covered with low-evaporation lids.
(§4) Two biological replicates ×2 technical replicates were conducted on separate days (final n=4). Inhibition of bacterial growth was determined visually, where the MIC was recorded as the lowest compound concentration with no visible growth.

Experiment [12] concerns Acinetobacter baumannii ATCC 19606 Type Strain (GN_034). Described as above. As to conditions: Example 11 Table 41; GN_034; n=4 replicates. The procedure:
as §2, §3, §4

[13] abbreviates: Example 8 Table 31, compound alone.
[14] abbreviates: Example 9 Table 35, compound alone.

For the compound `CO[C@@]1(NC(=O)C2SC(=C(C(N)=O)C(=O)O)S2)C(=O)N2C(C(=O)O)=C(CSc3nnnn3C)CS[C@@H]21` (stereo partly drawn) [Cefotetan], the minimal inhibitory concentration (MIC) in experiment [1] (ATCC25922, read-out: MIC of Cefotetan, Cefotetan alone) is 0.25 µg/mL; in experiment [1] (ATCC25922, read-out: MIC of Cefotetan, Escherichia coli ATCC 25922) it was 0.25 µg/mL; in experiment [2] (ATCC19606, read-out: MIC of Cefotetan, Acinetobacter baumannii ATCC 19606), 256 µg/mL; in experiment [2] (ATCC19606, read-out: MIC of Cefotetan, Cefotetan alone), 256 µg/mL; in experiment [3] (Pseudomonas aeruginosa, ATCC27853, read-out: MIC of Cefotetan) it was 256 µg/mL; in experiment [4] (Klebsiella pneumoniae, ATCC700603, read-out: MIC of Cefotetan, Cefotetan alone) it was 0.5 µg/mL. The entries for the “MIC of Cefotetan” value in [3] (Cefotetan alone) and in experiment [4] (Cefotetan alone) were 256 µg/mL and 1 µg/mL, respectively.
Take Polymyxin B: the “Minimal Inhibitory Concentration (MIC)” value is 1 µg/mL and 0.5 µg/mL in experiment [1] (Example 1 Table 3, GN_001, compound alone, replicates, listed as MCC_000636); 1 µg/mL and 0.5 µg/mL in [2] (Example 1 Table 3, GN_034, compound alone, replicates, listed as MCC_000636); 1 µg/mL in experiment [3] (Example 1 Table 3, GN_042, compound alone, replicates). The “Minimum Inhibitory Concentration (MIC)” value in experiment [1] (Example 6 Table 23, GN_001, compound alone, replicates, listed as MCC_000636) was 0.25 μg/mL (2×) and 0.5 μg/mL and 1 μg/mL; in experiment [2] (Example 6 Table 23, GN_034, compound alone, replicates, listed as MCC_000636), 0.25 µg/mL and 0.125 µg/mL and 2 µg/mL and 1 µg/mL; in experiment [3] (Example 6 Table 23, GN_042, compound alone, replicates, listed as MCC_000636), 0.5 μg/mL (2×) and 2 μg/mL (2×); in [5] (setting [13]) it was 0.125 μg/mL (3×) and 0.25 μg/mL; in experiment [5] (setting [14]), 0.125 μg/mL (3×) and 0.25 μg/mL; in experiment [6] (setting [13]), 0.5 μg/mL and 0.25 μg/mL (3×). In addition, the “Minimum Inhibitory Concentration (MIC)” value was 0.5 μg/mL and 0.25 μg/mL (3×) in experiment [6] (setting [14]); 16 μg/mL and 8 μg/mL (3×) in [7] (setting [13]); 16 μg/mL and 8 μg/mL (3×) in [7] (setting [14]); 0.0625 µg/mL in experiment [8]; 0.5 μg/mL and 0.25 μg/mL (3×) in [9]; 2 µg/mL in experiment [10] (Example 8 Table 31, compound alone, replicates). Also, the “MIC of Polymyxin B” value in experiment [1] (Example 6 Table 24, GN_001) was 1 µg/mL; in experiment [2] (Example 6 Table 24, GN_034) it was 1 µg/mL and 2 µg/mL; in experiment [3] (Example 6 Table 24, GN_042), 2 µg/mL. In addition, the “MIC of MCC_00636” value in experiment [5] (Example 8 Table 32) is 1 µg/mL; in experiment [6] (Example 8 Table 32) it was 1 µg/mL; in experiment [7] (Example 8 Table 32) it was 8 µg/mL; in [10] (Example 8 Table 32), 2 µg/mL. For the same compound, the “activity alone” value in experiment [11] (Example 11, Lipid A deficient GN_237) is “resistant”. The “MIC (Test results)” value in [11] (Example 11 Table 41, GN_237, n=4 replicates) was 128 µg/mL; in [12] it was over 128 µg/mL.
